Reference: patent publication US9415047B2, “Use of benzo five-membered nitrogen heterocyclic piperazine or piperidine derivatives” (Liaoning Emmy Biological Pharmaceutical Co., Ltd., priority 2012, dated 2016)

Columns and labels:
[1] = test system: NA constricted rabbit aorta; assay: Relaxing effects on vascular smooth muscle constricted by noradrenaline (NA) in vitro; settings: relaxation of rabbit aorta constricted by noradrenaline (10^−5 mol/L), mean±SEM, n=5; for EC50: Oryctolagus cuniculus
Experimental: Adrenaline hydrochloride (AD) (10^−5 mol/L) was added into a bath tube to induce constriction, when maximal constriction was achieved, the sample was completely flushed, K-H solution was changed for every 20 min. Contents in the tube was balanced for 60 min, when baseline recovered to be stable, noradrenaline bitartrate (NA) (10^−5 mol/L) was added to induce constriction. When the later maximal constriction response was basically consistent with the former one, the prepared compound solutions were subsequently added, including compound II-84 to II-123 solutions (1×10^−10-1×10^−2 mol/L), compound II-124 to II-157 solutions (1×10^−10-1×10^−3 mol/L), to record the waveforms. Relaxing percentage of the compound was used as Y axis, maximal relaxation response was 100%, negative logarithm of different concentration was used as X axis, to draw dose effect curve (expressed in mean±SEM ( ? ), n=5).

[2] = test system: high kalium concentration constricted rabbit aorta; assay: Relaxing effects on vascular smooth muscle constricted by high kalium concentration in vitro; settings: relaxation of rabbit aorta constricted by high kalium solution (K+ 60 mmol/L), mean±SEM, n=5; for EC50: Oryctolagus cuniculus
Experimental: Adrenaline hydrochloride (AD) (10^−5 mol/L) was added into a bath tube to induce constriction, when maximal constriction was achieved, the sample was completely flushed, K-H solution was changed for every 20 min. Contents in the tube was balanced for 60 min, when baseline recovered to be stable, K-H solution in the bath tube was replaced with high kalium concentration solution to induce constriction. When the later maximal constriction response was basically consistent with the former one, the prepared compound solutions were subsequently added, including compound II-1 to II-60 solutions (1×10^−8-1×10^−3 mol/L), compound II-84 to II-123 solutions (1×10^−10-1×10^−2 mol/L) and compound II-124 to II-157 solutions (1×10^−10-1×10^−3 mol/L), to record the waveforms. Relaxing percentage of the compound was used as Y axis, maximal relaxation response was 100%, negative logarithm of different concentration was used as X axis, to draw dose effect curve (expressed in mean±SEM ( ? ), n=5). Compounds II-2 and II-3 had the most obvious relaxing effects (FIG. 2 and FIG. 9).

[3] = test system: AD constricted rabbit aorta; assay: Relaxing effects on vascular smooth muscle constricted by adrenaline hydrochloride (AD) in vitro; settings: relaxation of rabbit aorta constricted by adrenaline (10^−5 mol/L), mean±SEM, n=5; for EC50: Oryctolagus cuniculus
In short: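 Rabbit aortic strips in K-H solution precontracted with adrenaline hydrochloride (10^−5 mol/L) after a reproducible second contraction; compounds added cumulatively over ranges from 1×10^−10 up to 1×10^−2 mol/L depending on the compound series. Relaxation expressed as % of maximal relaxation versus −log concentration, mean±SEM, n=5.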

SMILES | EC50 [1] | EC50 [2] | EC50 [3] | −logEC50 [1] | −logEC50 [2] | −logEC50 [3]
c1ccc2c(c1)nnn2CCCN1CCC(c2noc3ccccc23)CC1 [II-84, N-(3-(1H-benzotriazole-1-yl)propyl)-4-(3-benzisoxazolyl)piperidine] | 0.676 µM | 53.7 µM | 0.589 µM | – | – | –
Cc1ccc2c(C3CCN(CCCn4nnc5ccccc54)CC3)noc2c1 [II-86, N-(3-(1H-benzotriazole-1-yl)propyl)-4-(3-(6-methylbenzisoxazolyl))piperidine] | – | – | – | 5.26 ± 0.04 | 4.09 ± 0.04 | 5.45 ± 0.04
COc1ccc2c(C3CCN(CCCn4nnc5ccccc54)CC3)noc2c1 [II-87, N-(3-(1H-benzotriazole-1-yl)propyl)-4-(3-(6-methoxylbenzisoxazolyl))piperidine] | – | – | – | 5.04 ± 0.03 | 4.12 ± 0.03 | 5.34 ± 0.03
Fc1ccc2c(C3CCN(CCCn4nnc5ccc(F)cc54)CC3)noc2c1 [II-88, N-(3-(6-fluoro-1H-benzotriazole-1-yl)propyl)-4-(3-(6-fluorobenzisoxazolyl))piperidine] | – | – | – | 5.73 ± 0.05 | 4.72 ± 0.05 | 5.61 ± 0.05
Fc1ccc2c(C3CCN(CCCn4nnc5ccc(Cl)cc54)CC3)noc2c1 [II-89, N-(3-(6-chloro-1H-benzotriazole-1-yl)propyl)-4-(3-(6-fluorobenzisoxazolyl))piperidine] | – | – | – | 5.22 ± 0.04 | 4.12 ± 0.04 | 5.42 ± 0.04
Cc1ccc2nnn(CCCN3CCC(c4noc5cc(F)ccc45)CC3)c2c1 [II-90, N-(3-(6-methyl-1H-benzotriazole-1-yl)propyl)-4-(3-(6-fluorobenzisoxazolyl))piperidine] | 4.47 µM | – | – | – | 4.28 ± 0.03 | 5.38 ± 0.03
COc1ccc2nnn(CCCN3CCC(c4noc5cc(F)ccc45)CC3)c2c1 [II-91, N-(3-(6-methoxyl-1H-benzotriazole-1-yl)propyl)-4-(3-(6-fluorobenzisoxazolyl))piperidine] | 4.9 µM | – | – | – | 4.02 ± 0.05 | 5.23 ± 0.05
O=Cc1ccc2nnn(CCCN3CCC(c4noc5cc(F)ccc45)CC3)c2c1 [II-92, N-(3-(6-formoxyl-1H-benzotriazole-1-yl)propyl)-4-(3-(6-fluorobenzisoxazolyl))piperidine] | 1.86 µM | – | – | – | 4.32 ± 0.04 | 5.56 ± 0.04
COc1ccc2nnn(CCCN3CCC(c4noc5ccccc45)CC3)c2c1 [II-93, N-(3-(6-methoxylbenzotriazolyl)propyl)-4-(3-benzisoxazolyl)piperidine] | 0.851 µM | – | – | – | 4.11 ± 0.03 | 6.11 ± 0.07
COc1ccc2c(C3CCN(CCCCn4nnc5ccc(C#N)cc54)CC3)noc2c1 [II-97, N-(4-(6-cyanobenzotriazolyl)butyl)-4-(3-(6-methoxylbenzisoxazolyl))piperidine] | 8.13 µM | – | – | – | 3.23 ± 0.04 | 5.23 ± 0.06
COc1ccc2nnn(OCCN3CCC(c4noc5cc(F)ccc45)CC3)c2c1 [II-98, N-(2-(6-methoxylbenzotriazolyl)ethoxyl)-4-(3-(6-fluorobenzisoxazolyl))piperidine] | 49 µM | 295 µM | 93.3 µM | – | – | –
Fc1ccc2c(C3CCN(CCOn4nnc5ccccc54)CC3)noc2c1 [II-99, N-(2-(1-benzotriazolyl)ethoxyl)-4-(3-(6-fluorobenzisoxazolyl))piperidine] | 91.2 µM | 550 µM | 55 µM | – | – | –
Fc1ccc2c(C3CCN(CCCn4ncc5ccccc54)CC3)noc2c1 [II-103, N-(3-(1-benzopyrazol)propyl)-4-(3-(6-fluorobenzisoxazolyl))piperidine] | 7.76 µM | 617 µM | 6.17 µM | – | – | –
N#Cc1ccc2cnn(CCCCN3CCC(c4noc5cc(F)ccc45)CC3)c2c1 [II-104, N-(4-(6-cyanobenzopyrazol)butyl)-4-(3-(6-fluorobenzisoxazolyl))piperidine] | 9.55 µM | 380 µM | 9.55 µM | – | – | –
Clc1cccc(C2CCN(CCCCn3cnc4ccccc43)CC2)c1 [II-107, N-(4-(1H-benzimidazoyl-1-yl)butyl)-4-(3-chlorophenyl)piperidine] | 7.76 µM | – | – | – | 3.69 ± 0.02 | 5.03 ± 0.02
Clc1cccc(C2CCN(CCCCn3nnc4ccccc43)CC2)c1 [II-108, N-(4-(1H-benzotriazole-1-yl)butyl)-4-(3-chlorophenyl)piperidine] | 5.37 µM | – | – | – | 3.82 ± 0.03 | 5.16 ± 0.03
FC(F)(F)c1cccc(C2CCN(CCCCn3cnc4ccccc43)CC2)c1 [II-109, N-(4-(1H-benzimidazoyl-1-yl)butyl)-4-(3-trifluoromethylphenyl)piperidine] | 0.479 µM | – | – | – | 5.01 ± 0.04 | 6.21 ± 0.04
FC(F)(F)c1cccc(C2CCN(CCCCn3nnc4ccccc43)CC2)c1 [II-110, N-(4-(1H-benzotriazole-1-yl)butyl)-4-(3-trifluoromethylphenyl)piperidine] | 0.355 µM | – | – | – | 5.12 ± 0.03 | 6.36 ± 0.03
Fc1cccc(C2CCN(CCCCn3cnc4ccccc43)CC2)c1 [II-111, N-(4-(1H-benzimidazoyl-1-yl)butyl)-4-(3-fluorophenyl)piperidine] | 21.4 µM | – | – | – | 3.44 ± 0.02 | 4.89 ± 0.02
COc1ccccc1C1CCN(CCCCn2cnc3ccccc32)CC1 [II-112, N-(4-(1H-benzimidazoyl-1-yl)butyl)-4-(2-methoxylphenyl)piperidine] | 28.2 µM | – | – | – | 3.38 ± 0.03 | 4.76 ± 0.03
Fc1ccc2nnn(CCCCN3CCC(c4cccc(C(F)(F)F)c4)CC3)c2c1 [II-113, N-(4-(6-fluoro-1H-benzotriazole-1-yl)butyl)-4-(3-trifluoromethylphenyl)piperidine] | 6.17 µM | – | – | – | 4.03 ± 0.04 | 5.31 ± 0.04
COc1ccc2nnn(CCCCN3CCC(c4cccc(C(F)(F)F)c4)CC3)c2c1 [II-114, N-(4-(6-methoxyl-1H-benzotriazole-1-yl)butyl)-4-(3-trifluoromethylphenyl)piperidine] | 17 µM | – | – | – | 3.56 ± 0.03 | 4.86 ± 0.03
N#Cc1ccc2nnn(CCCCN3CCC(c4cccc(C(F)(F)F)c4)CC3)c2c1 [II-115, N-(4-(6-cyano-1H-benzotriazole-1-yl)butyl)-4-(3-trifluoromethylphenyl)piperidine] | 29.5 µM | – | – | – | 3.23 ± 0.02 | 4.79 ± 0.02
FC(F)(F)c1cccc(C2CCN(CCCOn3nnc4ccccc43)CC2)c1 [II-116, N-(4-(1H-benzotriazole-1-yl)propoxyl)-4-(3-trifluoromethylphenyl)piperidine] | 4.37 µM | – | – | – | 4.22 ± 0.05 | 5.56 ± 0.05
c1ccc2nc(C3CCN(CCCCn4nnc5ccccc54)CC3)cnc2c1 [II-157, N-(4-(1H-benzotriazole-1-yl)butyl)-4-(2-quinoxalinyl)piperidine] | – | – | – | 4.53 ± 0.05 | – | 4.83 ± 0.05
